Among the data in patent publication US8394859B2, “Combretastatin analogs with tubulin binding activity” (Baylor University, priority 2005, dated 2013) are IC50 and GI50 values, retold here.

≈ marks a conversion by molar mass, not a printed value. Some results are limits rather than exact numbers.

Test [1] relates to purified tubulin. Put plainly: In vitro inhibition of tubulin polymerization. The format is biochemical. To be noted: purified bovine brain tubulin 1.5 mg/ml, preincubated 15 minutes at 37° C., GTP-induced, 350 nm. Here is the method: IC50 values for tubulin polymerization were determined according to a previously described procedure (Bai et al., Cancer Research, 1996) and are summarized in Table 3 below. Purified tubulin is obtained from bovine brain cells as previously described (Hamel and Lin, Biochemistry, 1984). Various amounts of inhibitor were preincubated for 15 minutes at 37° C. with purified tubulin. After the incubation period, the reaction was cooled and GTP was added to induce tubulin polymerization. Polymerization was then monitored in a Gilford spectrophotometer at 350 nm. The final reaction mixtures (0.25 ml) contained 1.5 mg/ml tubulin, 0.6 mg/ml microtubule-associated proteins (MAPs), 0.5 mM GTP, […], 4% DMSO and 0.1M 4-morpholineethanesulfonate buffer (MES, pH 6.4). IC50 is the amount of inhibitor needed to inhibit tubulin polymerization 50% with respect to the amount of […] that occurs in the absence of inhibitor.

Test [2] concerns SF-268. Briefly: In vitro growth inhibition, SRB assay, CNS SF-268. To be noted: Homo sapiens, CNS SF-268, 48 hours incubation, read-out: GI50 (μM/mL) for Cell Line SF-268. The format is cell-based. The protocol: (§1) Newly prepared compounds were evaluated for cytotoxic activity against a variety of cell lines derived from human tumors using an assay system similar to the National Cancer Institute procedure previously described (Monks et al., J. Natl. Cancer Inst., 1991). Briefly, the cell suspensions, diluted according to the particular cell type and the expected target cell density (5,000-40,000 cells per well based on cell growth characteristics), were added by pipet (100 ul) to 96-well microtiter plates. Inoculates were allowed a preincubation time of 24-28 hours at 37 C for stabilization. Incubation with the inhibitor compounds lasted for 48 hours in 5% CO2 atmosphere and 100% humidity. Determination of cell growth was performed by in situ fixation of cells, followed by staining with a protein-binding dye sulforhodamine B (SRB), which binds to the basic amino acids of cellular macromolecules. The solubilized stain was measured spectrophotometrically.
(§2) Several compounds were evaluated for cytotoxic activity against […] P388 leukemia cell lines. The effective dose or ED50 value (defined as the effective dosage required for inhibition of 50% of cell growth) was measured. These and additional compounds were evaluated in terms of growth inhibitory activity against several other human cancer cell lines including: central nervous system (“CNS”, SF-268), pancreas (BXPC-3), non-small cell lung cancer (“lung-NSC”, NCI-H460), breast (MCF-7), colon (KM20L2), ovarian (OVCAR-3), and prostate (DU-145). The growth inhibition GI50 (defined as the dosage required for inhibition of tumor cell growth by 50%) is listed for each cell line.

For test [3], the system named is DU-145. Put plainly: In vitro growth inhibition, SRB assay, prostate DU-145. Format: cell-based. The following applies: Homo sapiens, prostate DU-145, 48 hours incubation, read-out: GI50 (μM/mL) for Cell Line DU-145. The protocol:
as §1, §2

Test [4] relates to KM20L2. Briefly: In vitro growth inhibition, SRB assay, colon KM20L2. The format is cell-based. To be noted: Homo sapiens, KM-20L2, colon KM20L2, 48 hours incubation, read-out: GI50 (μM/mL) for Cell Line KM20L2. Here is the method: as §1, §2
For test [5], the system named is NCI-H460. Briefly: In vitro growth inhibition, SRB assay, lung-NSC NCI-H460. Format: cell-based. The following applies: Homo sapiens, lung-NSC NCI-H460, 48 hours incubation, read-out: GI50 (μM/mL) for Cell Line NCI-H460. Here is the method:
as §1, §2

For test [6], the system named is MCF-7. Briefly: In vitro growth inhibition, SRB assay, breast MCF-7. Format: cell-based. The following applies: Homo sapiens, MCF7, breast MCF-7, 48 hours incubation, read-out: GI50 (μM/mL) for Cell Line MCF-7. Here is the method:
as §1, §2

The test system of test [7] is BXPC-3. Briefly: In vitro growth inhibition, SRB assay, pancreas BXPC-3. Format: cell-based. To be noted: Homo sapiens, 48 hours incubation, read-out: GI50 (μM/mL) for Cell Line BXP-3. The protocol: as §1, §2

In turn, `COc1ccc(/C=C\c2cc(OC)c(OC)c(OC)c2)cc1O` [CA-4, Combretastatin A-4, reference compound] yielded an IC50 in test [1] of […].

With `COc1ccc2c(c1)CCCC(c1cc(OC)c(OC)c(OC)c1)=C2` [Compound 1, 3-Methoxy-8-(3,4,5-trimethoxy-phenyl)-6,7-dihydro-5H-benzocycloheptene], the GI50 in test [2] came to 0.28 µg/mL (≈ 0.823 µM); in test [3], 0.33 µg/mL (≈ 0.969 µM); in test [4] it was 0.2 µg/mL (≈ 0.588 µM); in test [5], 0.23 µg/mL (≈ 0.676 µM); in test [6] it was 0.32 µg/mL (≈ 0.94 µM); in test [7] it was 0.4 µg/mL (≈ 1.18 µM). Besides, in test [1], the half-inhibitory concentration (IC50) is about 40 µM.

As for `COc1ccc2c(c1)CCCC=C2c1cc(OC)c(OC)c(OC)c1` [Compound 2, 3-Methoxy-9-(3,4,5-trimethoxy-phenyl)-6,7-dihydro-5H-benzocycloheptene], the GI50 in test [2], in test [3], in test [4], in test [5], in test [6] and in test [7] was over 10 µg/mL throughout. The same compound showed an IC50 in test [1] of 1.4 ± 0.2 µM.

In turn, `COc1ccc2c(c1O)CCCC(c1cc(OC)c(OC)c(OC)c1)=C2` [Compound 3, 2-Methoxy-6-(3,4,5-trimethoxy-phenyl)-8,9-dihydro-7H-benzocyclohepten-1-ol] displayed an IC50 in test [1] of about 40 µM.

With `COc1ccc(C(=O)C2=CCCCc3c2cc(OC)c(OC)c3OC)c(O)c1O` [Compound 23, (2,3-Dihydroxy-4-methoxy-phenyl)-(1,2,3-trimethoxy-8,9-dihydro-7H-benzocyclohepten-5-yl)-methanone], the GI50 amounted to 0.009 µg/mL (≈ 0.0225 µM) in test [2]; 0.026 µg/mL (≈ 0.0649 µM) in test [3]; 0.031 µg/mL (≈ 0.0774 µM) in test [4]; 0.023 µg/mL (≈ 0.0574 µM) in test [5]; 0.0059 µg/mL (≈ 0.0147 µM) in test [6]; 0.017 µg/mL (≈ 0.0425 µM) in test [7]. The same compound yielded an IC50 in test [1] of about 40 µM.

In turn, `COc1ccc(C(=O)C2=CCCCc3c2cc(OC)c(OC)c3OC)cc1O` [Compound 24, (3-Hydroxy-4-methoxy-phenyl)-(1,2,3-trimethoxy-8,9-dihydro-7H-benzocyclohepten-5-yl)-methanone] yielded an IC50 in test [1] of about 40 µM.
